Among the data in patent US20250326748A1, “COMPOUNDS AND METHODS FOR MODULATING SPLICING” (REMIX THERAPEUTICS INC., priority 2022, published 2025) are IC50 and AC50 values, retold here.

One assay has as its system HTT mRNA. As to the kind of experiment: Splicing RT-qPCR assay, HTT canonical (CJ) and alternative (AJ) junction mRNA. In kind it is cell-based, human. The conditions noted are these: Homo sapiens; for pIC50: canonical junction mRNA; for AC50: alternative junction mRNA, read-out: HTT AJ (AC50, increase in AJ mRNA). In a few lines:
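A673 or K562 cells were treated for 24 h at 37 °C with an 11-point 3-fold compound dilution series (top final 10 uM, DMSO ≤0.25%). Lysates then went to one-step TaqMan RT-qPCR quantifying canonical (CJ) and alternative-exon (AJ) junction transcripts, normalized to a housekeeping gene.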

Another assay concerns SMN2 mRNA. The assay can be described thus: Splicing RT-qPCR panel, SMN2 canonical junction (CJ) mRNA. The class given is cell-based, human. Particulars: Homo sapiens, read-out: SMN2 CJ (decrease in CJ mRNA levels, IC50). The essentials: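 A673 cells (DMEM, 10% FBS) or K562 cells (IMDM, 10% FBS) treated 24 h at 37 °C with an 11-point 3-fold dilution, top 10 uM, DMSO ≤0.25%. Canonical-junction mRNA quantified in lysates by RT-qPCR, normalised to GAPDH, GUSB or PPIA and to DMSO (2^−ΔΔCt), then converted to % response.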

The mark [1] stands for this setting: 24 h, RT-qPCR, A673 or K562 cells, 24 hours treatment, read-out: HTT CJ (IC50, decrease in CJ mRNA).
Where [2] appears, read: qPCR panel, read-out: HTT CJ (decrease in CJ mRNA levels, IC50).
The mark [3] stands for this setting: RT-qPCR, A673 or K562 cells, 24 hours treatment.

pIC50: −log10 of the molar value. Where a name gives a salt, the structure may show the parent alone. Read-outs that look alike come from different tables or passages of the source.

In the case of `C[C@@H]1CN(c2cnc3nc(-c4cc5cn(C)nc5c(F)c4O)cc(Cl)c3c2)C[C@@H](C)N1` [Compound 281], the pIC50 in the assay with HTT mRNA (setting [1]), in the assay with HTT mRNA (setting [2]) and in the assay with SMN2 mRNA was > 7.00 throughout. Further, the AC50 with HTT mRNA (setting [3]) fell in the range of 100 to 1000 nM.

As for `CN(c1cnc2nc(-c3cc4cn(C)nc4c(F)c3O)ccc2c1)C1CCNCC1` [Compound 284], the pIC50 was 5.00 to 6.00 in the assay with HTT mRNA (setting [1]), 5.00 to 6.00 with HTT mRNA (setting [2]) and > 7.00 with SMN2 mRNA. Further, in the assay with HTT mRNA (setting [3]), the AC50 was in the range of 1000 to 10000 nM.

For the compound `Cn1cc2cc(-c3ccc4cc(NC5CCNCC5)cnc4n3)c(O)c(F)c2n1` [Compound 285], the pIC50 in the assay on HTT mRNA (setting [1]) was 6.00 to 7.00; with HTT mRNA (setting [2]), 6.00 to 7.00; with SMN2 mRNA, > 7.00. Moreover, the AC50 in the assay with HTT mRNA (setting [3]) fell in the range of 100 to 1000 nM.

Consider `CN[C@@H]1CCN(c2cnc3nc(-c4cc5cn(C)nc5c(C)c4O)cc(Cl)c3c2)C1` [Compound 286, 5-{4-chloro-6-[(3R)-3-(methylamino)pyrrolidin-1-yl]-1,8-naphthyridin-2-yl}-2,7-dimethylindazol-6-ol hydrochloride], for which the pIC50 with HTT mRNA (setting [1]), with HTT mRNA (setting [2]) and with SMN2 mRNA was > 7.00 each time. Moreover, the AC50 in the assay with HTT mRNA (setting [3]) is < 100 nM.

As to `CN[C@H]1CCN(c2cnc3nc(-c4cc5cn(C)nc5c(C)c4O)cc(Cl)c3c2)C1.Cl` [Compound 287], the pIC50 in the assay on HTT mRNA (setting [1]), in the assay on HTT mRNA (setting [2]) and with SMN2 mRNA was > 7.00 each time. Besides, in the assay with HTT mRNA (setting [3]), the AC50 lay in the range of 100 to 1000 nM.

On to `C[C@H]1CN(c2cnc3nc(-c4cc(F)c5nn(C)cc5c4)cc(Cl)c3c2)C[C@@H](C2CC2)N1` [Compound 288], for which the pIC50 with HTT mRNA (setting [1]) was 5.00 to 6.00; with HTT mRNA (setting [2]), 5.00 to 6.00; with SMN2 mRNA it was > 7.00. Besides, the AC50 in the assay on HTT mRNA (setting [3]) lay in the range of 1000 to 10000 nM.

On to `Cc1c(O)c(-c2cc(Cl)c3cc(N(C)[C@@H]4CCNC4)cnc3n2)cc2cn(C)nc12.Cl` [Compound 293], for which the pIC50 with HTT mRNA (setting [1]) was 6.00 to 7.00; with HTT mRNA (setting [2]), 6.00 to 7.00; in the assay with SMN2 mRNA, > 7.00. In addition, the AC50 with HTT mRNA (setting [3]) lay in the range of 100 to 1000 nM.

For `Cc1c(O)c(-c2cc(Cl)c3cc(N(C)[C@H]4CCNC4)cnc3n2)cc2cn(C)nc12` [Compound 294], the pIC50 in the assay on HTT mRNA (setting [1]) is 6.00 to 7.00; in the assay on HTT mRNA (setting [2]) it was 6.00 to 7.00; with SMN2 mRNA, > 7.00. The AC50 in the assay on HTT mRNA (setting [3]) is 1000 to 10000 nM.

Take `C[C@@H]1CN(c2cnc3nc(-c4cc(F)c5nn(C)cc5c4)cc(Cl)c3c2)CCN1` [Compound 295, 4-chloro-2-(7-fluoro-2-methylindazol-5-yl)-6-[(3R)-3-methylpiperazin-1-yl]-1,8-naphthyridine]: the pIC50 in the assay with HTT mRNA (setting [1]) is 6.00 to 7.00; with HTT mRNA (setting [2]), 6.00 to 7.00; in the assay with SMN2 mRNA, > 7.00. Moreover, the AC50 with HTT mRNA (setting [3]) was 100 to 1000 nM.

In the case of `C[C@H]1CN(c2cnc3nc(-c4cc(F)c5nn(C)cc5c4)cc(Cl)c3c2)CCN1` [Compound 296], the pIC50 is 6.00 to 7.00 in the assay with HTT mRNA (setting [1]), 6.00 to 7.00 in the assay on HTT mRNA (setting [2]) and > 7.00 with SMN2 mRNA. For the same compound, in the assay with HTT mRNA (setting [3]), the AC50 lay in the range of 1000 to 10000 nM.

`Cc1cn2cc(-c3cc(Cl)c4cc(N5C[C@@H](C)N[C@@H](C)C5)cnc4n3)cc(F)c2n1` [Compound 297]: the pIC50 is 5.00 to 6.00 in the assay on HTT mRNA (setting [1]), 5.00 to 6.00 in the assay with HTT mRNA (setting [2]) and > 7.00 in the assay with SMN2 mRNA. Further, in the assay on HTT mRNA (setting [3]), the AC50 lay within 1000 to 10000 nM.

Take `Cc1c(O)c(-c2ccc3c(C(F)(F)F)c(N4CCNCC4)cnc3n2)cc2cn(C)nc12` [Compound 302, 2,7-dimethyl-5-[6-(piperazin-1-yl)-5-(trifluoromethyl)-1,8-naphthyridin-2-yl]indazol-6-ol]: the results for the pIC50 in the assay on HTT mRNA (setting [1]), in the assay on HTT mRNA (setting [2]) and in the assay with SMN2 mRNA were 5.00 to 6.00, 5.00 to 6.00 and 6.00 to 7.00, respectively. For the same compound, the AC50 in the assay with HTT mRNA (setting [3]) is > 10000 nM.

`CN1CCC[C@@H]2CN(c3cnc4nc(-c5cc6cn(C)nc6c(F)c5O)cc(Cl)c4c3)C[C@@H]21` [Compound 303]: the results for the pIC50 in the assay on HTT mRNA (setting [1]), in the assay with HTT mRNA (setting [2]) and with SMN2 mRNA were 6.00 to 7.00, 6.00 to 7.00 and > 7.00, respectively. Besides, the AC50 with HTT mRNA (setting [3]) was > 10000 nM.

For the compound `CN1CCC[C@H]2CN(c3cnc4nc(-c5cc6cn(C)nc6c(F)c5O)cc(Cl)c4c3)C[C@H]21` [Compound 304], the pIC50 in the assay with HTT mRNA (setting [1]) is 5.00 to 6.00; in the assay with HTT mRNA (setting [2]), 5.00 to 6.00; in the assay on SMN2 mRNA, > 7.00. For the same compound, the AC50 in the assay with HTT mRNA (setting [3]) was in the range of 1000 to 10000 nM.

For the compound `C[C@@H]1CN(c2cnc3nc(-c4cc5cn(C)nc5c(F)c4O)cc(C4CC4)c3c2)C[C@H](C)N1` [Compound 305, 5-{4-cyclopropyl-6-[(3R,5S)-3,5-dimethylpiperazin-1-yl]-1,8-naphthyridin-2-yl}-7-fluoro-2-methylindazol-6-ol], the pIC50 is 5.00 to 6.00 in the assay on HTT mRNA (setting [1]), 5.00 to 6.00 in the assay with HTT mRNA (setting [2]) and > 7.00 in the assay with SMN2 mRNA. For the same compound, the AC50 with HTT mRNA (setting [3]) was in the range of 1000 to 10000 nM.

As for `CCN[C@@H]1CCN(c2cnc3nc(-c4cc5cn(C)nc5cc4O)ccc3c2)C1` [Compound 310, 5-{6-[(3R)-3-(ethylamino)468pyrrolidine-1-yl]-1,8-naphthyridin-2-yl}-2-methylindazol-6-ol hydrochloride], the pIC50 with HTT mRNA (setting [1]), in the assay with HTT mRNA (setting [2]) and in the assay with SMN2 mRNA was > 7.00 each time. In the assay on HTT mRNA (setting [3]), the AC50 lay in the range of 100 to 1000 nM.

`CCN[C@H]1CCN(c2cnc3nc(-c4cc5cn(C)nc5cc4O)ccc3c2)C1` [Compound 311, 5-{6-[(3S)-3-(ethylamino)pyrrolidin-1-yl]-1,8-naphthyridin-2-yl}-2-methylindazol-6-ol hydrochloride]: the figures for the pIC50 in the assay on HTT mRNA (setting [1]), in the assay on HTT mRNA (setting [2]) and in the assay on SMN2 mRNA were 6.00 to 7.00, 6.00 to 7.00 and > 7.00, respectively. Moreover, the AC50 with HTT mRNA (setting [3]) was 1000 to 10000 nM.

In the case of `Cn1cc2cc(-c3ccc4cc(N5CC[C@@H](NCC6CC6)C5)cnc4n3)c(O)cc2n1` [Compound 313], the pIC50 with HTT mRNA (setting [1]) is 6.00 to 7.00; in the assay with HTT mRNA (setting [2]), 6.00 to 7.00; in the assay on SMN2 mRNA, > 7.00. The AC50 in the assay on HTT mRNA (setting [3]) fell in the range of 100 to 1000 nM.

Regarding `Cn1cc2cc(-c3ccc4cc(N5CC[C@H](NCC6CC6)C5)cnc4n3)c(O)cc2n1` [Compound 314], the pIC50 with HTT mRNA (setting [1]) was 6.00 to 7.00; in the assay on HTT mRNA (setting [2]) it was 6.00 to 7.00; in the assay with SMN2 mRNA, > 7.00. The AC50 in the assay on HTT mRNA (setting [3]) fell in the range of 100 to 1000 nM.

Turning to `CN(C)C1CCN(c2cnc3nc(-c4cc5cn(C)nc5cc4O)ccc3c2)CC1` [Compound 316], the pIC50 in the assay with HTT mRNA (setting [1]) is 5.00 to 6.00; in the assay on HTT mRNA (setting [2]), 5.00 to 6.00; in the assay with SMN2 mRNA, > 7.00. Moreover, the AC50 in the assay with HTT mRNA (setting [3]) fell in the range of 1000 to 10000 nM.

As to `CCN[C@@H]1CCN(c2cnc3nc(-c4cc5cn(C)nc5cc4O)cc(Cl)c3c2)C1` [Compound 317], the pIC50 in the assay on HTT mRNA (setting [1]), in the assay with HTT mRNA (setting [2]) and with SMN2 mRNA was > 7.00 in each case. The AC50 in the assay with HTT mRNA (setting [3]) was < 100 nM.

Take `CCN[C@H]1CCN(c2cnc3nc(-c4cc5cn(C)nc5cc4O)cc(Cl)c3c2)C1` [Compound 318]: the results for the pIC50 with HTT mRNA (setting [1]), in the assay on HTT mRNA (setting [2]) and in the assay on SMN2 mRNA were 6.00 to 7.00, 6.00 to 7.00 and > 7.00, respectively. In addition, in the assay on HTT mRNA (setting [3]), the AC50 lay within 1000 to 10000 nM.

In the case of `C[C@@H]1CN(c2cnc3nc(-c4ccc5nn(C)cc5c4)cc(Cl)c3c2)C[C@H](C)N1` [Compound 320, 4-chloro-6-[(3R,5S)-3,5-dimethylpiperazin-1-yl]-2-(2-methylindazol-5-yl)-1,8-naphthyridine], the pIC50 was < 5.00 with HTT mRNA (setting [1]), < 5.00 in the assay with HTT mRNA (setting [2]) and > 7.00 in the assay on SMN2 mRNA. Further, in the assay with HTT mRNA (setting [3]), the AC50 was > 10000 nM.
